Holding throughout (assay): relative viability (nuclei count vs DMSO), 5 days (fraction); higher = more cells survive
Compound in test [1]: CC1=CC=C(C=C1)C(=O)CN2C3=C(CCCC3)SC2=N [Pifithrin_alpha] + C[C@@H](Oc1cc(-c2cnn(C3CCNCC3)c2)cnc1N)c1c(Cl)ccc(F)c1Cl [Crizotinib] (partner 1 µM)
A digest of the protocol: (§1)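 Medians of duplicate plates are given as relative viability. That measure is the nuclei count in treated wells divided by the count in vehicle wells. Counts were taken on 4× images of lung cancer cell lines in 1536-well plates, 5 days after pin-tool dosing the day after seeding with one drug alone or a fixed anchor-drug dose plus five library-drug doses (not always all listed) in √10 steps.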

Compound in test [2]: CC1=CC=C(C=C1)C(=O)CN2C3=C(CCCC3)SC2=N [Pifithrin_alpha] + C[C@]1(O)C[C@@H](c2nc(-c3ccc4ccc(-c5ccccc5)nc4c3)c3c(N)nccn32)C1 [Linsitinib] (partner 1 µM)
In a few lines: as §1

Compound in test [3]: CC1=CC=C(C=C1)C(=O)CN2C3=C(CCCC3)SC2=N [Pifithrin_alpha] + Cc1nc(NC(=O)N2CCC[C@H]2C(N)=O)sc1-c1ccnc(C(C)(C)C(F)(F)F)c1 [Alpelisib] (partner 2 µM)
In a few lines: as §1

Compound in test [4]: CC1=CC=C(C=C1)C(=O)CN2C3=C(CCCC3)SC2=N [Pifithrin_alpha] + O=C(c1cc(Cc2n[nH]c(=O)c3ccccc23)ccc1F)N1CCN(C(=O)C2CC2)CC1 [Olaparib] (partner 8 µM)
A digest of the protocol: as §1

The record followed here is the supplement of paper PMC10307832.

NCI-H23: the relative viability in test [1] (first compound 1 µM) came out at 0.591; in test [1] (first compound 3.162 µM), 0.596; in test [1] (first compound 10 µM), 0.432; in test [1] (first compound 31.62 µM), 0.426; in test [1] (first compound 100 µM) it was 0.506; in test [2] (first compound 1 µM), 0.543. For the same cell line, the relative viability in test [2] (first compound 3.162 µM) worked out at 0.546; in test [2] (first compound 10 µM), 0.567; in test [2] (first compound 31.62 µM), 0.443; in test [2] (first compound 100 µM), 0.515; in test [3] (first compound 1 µM) it was 0.586; in test [3] (first compound 3.162 µM), 0.572. The relative viability came to 0.634 in test [3] (first compound 10 µM); 0.466 in test [3] (first compound 31.62 µM); 0.592 in test [3] (first compound 100 µM); 0.248 in test [4] (first compound 1 µM); 0.249 in test [4] (first compound 3.162 µM); 0.223 in test [4] (first compound 10 µM). The relative viability in test [4] (first compound 31.62 µM) was found to be 0.191; in test [4] (first compound 100 µM) it was 0.177.
On to NCI-H322M, for which the relative viability in test [1] (first compound 1 µM) was found to be 0.894; in test [1] (first compound 3.162 µM) it was 0.907; in test [1] (first compound 10 µM), 0.871; in test [1] (first compound 31.62 µM) it was 0.674; in test [1] (first compound 100 µM), 0.986; in test [2] (first compound 1 µM), 0.85. Besides, the relative viability in test [2] (first compound 3.162 µM) is 0.898; in test [2] (first compound 10 µM), 0.902; in test [2] (first compound 31.62 µM) it was 0.821; in test [2] (first compound 100 µM), 1.04; in test [3] (first compound 1 µM), 0.777; in test [3] (first compound 3.162 µM), 0.651. For the same cell line, the relative viability was determined as 0.802 in test [3] (first compound 10 µM); 0.581 in test [3] (first compound 31.62 µM); 0.87 in test [3] (first compound 100 µM); 0.74 in test [4] (first compound 1 µM); 0.715 in test [4] (first compound 3.162 µM); 0.723 in test [4] (first compound 10 µM). The relative viability in test [4] (first compound 31.62 µM) is 0.468; in test [4] (first compound 100 µM), 0.559.
On to NCI-H358, for which the relative viability in test [1] (first compound 1 µM) amounted to 0.616; in test [1] (first compound 3.162 µM), 0.589; in test [1] (first compound 10 µM) it was 0.516; in test [1] (first compound 31.62 µM), 0.428; in test [1] (first compound 100 µM), 0.625; in test [2] (first compound 1 µM), 0.777. The relative viability was determined as 0.83 in test [2] (first compound 3.162 µM); 0.671 in test [2] (first compound 10 µM); 0.547 in test [2] (first compound 31.62 µM); 0.541 in test [2] (first compound 100 µM); 0.895 in test [3] (first compound 1 µM); 0.958 in test [3] (first compound 3.162 µM). Moreover, the relative viability in test [3] (first compound 10 µM) was determined as 0.87; in test [3] (first compound 31.62 µM) it was 0.566; in test [3] (first compound 100 µM), 0.687; in test [4] (first compound 1 µM), 0.628; in test [4] (first compound 3.162 µM), 0.559; in test [4] (first compound 10 µM), 0.459. Further, the relative viability in test [4] (first compound 31.62 µM) is 0.252; in test [4] (first compound 100 µM) it was 0.555.
NCI-H441: the relative viability in test [1] (first compound 1 µM) is 0.718; in test [1] (first compound 3.162 µM) it was 0.739; in test [1] (first compound 10 µM), 0.806; in test [1] (first compound 31.62 µM) it was 0.56; in test [1] (first compound 100 µM), 0.826; in test [2] (first compound 1 µM), 0.52. Moreover, the relative viability worked out at 0.528 in test [2] (first compound 3.162 µM); 0.613 in test [2] (first compound 10 µM); 0.478 in test [2] (first compound 31.62 µM); 0.662 in test [2] (first compound 100 µM); 0.942 in test [3] (first compound 1 µM); 0.859 in test [3] (first compound 3.162 µM). Moreover, the relative viability in test [3] (first compound 10 µM) worked out at 0.673; in test [3] (first compound 31.62 µM) it was 0.708; in test [3] (first compound 100 µM) it was 0.85; in test [4] (first compound 1 µM) it was 0.608; in test [4] (first compound 3.162 µM), 0.673; in test [4] (first compound 10 µM), 0.468. Besides, the relative viability in test [4] (first compound 100 µM) was found to be 0.542.
Turning to NCI-H460, the relative viability in test [1] (first compound 1 µM) came out at 1.4; in test [1] (first compound 3.162 µM) it was 0.827; in test [1] (first compound 10 µM), 0.912; in test [1] (first compound 100 µM), 0.962; in test [2] (first compound 1 µM) it was 0.764; in test [2] (first compound 3.162 µM) it was 0.795. In addition, the relative viability is 0.906 in test [2] (first compound 10 µM); 0.563 in test [2] (first compound 100 µM); 0.529 in test [3] (first compound 1 µM); 0.57 in test [3] (first compound 3.162 µM); 0.384 in test [3] (first compound 10 µM); 0.305 in test [3] (first compound 100 µM). For the same cell line, the relative viability is 0.456 in test [4] (first compound 1 µM), 0.343 in test [4] (first compound 3.162 µM), 0.257 in test [4] (first compound 10 µM) and 0.21 in test [4] (first compound 100 µM).
For NCI-H520, the relative viability in test [1] (first compound 1 µM) stood at 1.19; in test [1] (first compound 3.162 µM) it was 0.805; in test [1] (first compound 10 µM), 0.731; in test [1] (first compound 31.62 µM) it was 0.509; in test [1] (first compound 100 µM), 0.833; in test [2] (first compound 1 µM), 1.07. In addition, the relative viability is 1.07 in test [2] (first compound 3.162 µM); 0.946 in test [2] (first compound 10 µM); 0.623 in test [2] (first compound 31.62 µM); 1.12 in test [2] (first compound 100 µM); 1.02 in test [3] (first compound 1 µM); 1.24 in test [3] (first compound 3.162 µM). In addition, the relative viability in test [3] (first compound 10 µM) is 0.698; in test [3] (first compound 31.62 µM), 0.472; in test [3] (first compound 100 µM) it was 0.842; in test [4] (first compound 1 µM), 0.319; in test [4] (first compound 3.162 µM) it was 0.286; in test [4] (first compound 10 µM), 0.317. In addition, the relative viability in test [4] (first compound 31.62 µM) stood at 0.301; in test [4] (first compound 100 µM) it was 0.292.
For the cell line NCI-H596, the relative viability in test [1] (first compound 1 µM) amounted to 0.953; in test [1] (first compound 3.162 µM), 0.92; in test [1] (first compound 10 µM) it was 0.952; in test [1] (first compound 31.62 µM) it was 0.883; in test [1] (first compound 100 µM) it was 1.02; in test [2] (first compound 1 µM), 1.04. Besides, the relative viability in test [2] (first compound 3.162 µM) was determined as 1.2; in test [2] (first compound 10 µM), 1.21; in test [2] (first compound 31.62 µM) it was 1.11; in test [2] (first compound 100 µM), 1.16; in test [3] (first compound 1 µM), 0.373; in test [3] (first compound 3.162 µM) it was 0.452. The relative viability in test [3] (first compound 10 µM) was 0.492; in test [3] (first compound 31.62 µM), 0.532; in test [3] (first compound 100 µM), 0.443; in test [4] (first compound 1 µM) it was 0.634; in test [4] (first compound 3.162 µM), 0.589; in test [4] (first compound 10 µM) it was 0.679. The relative viability was 0.492 in test [4] (first compound 31.62 µM) and 0.513 in test [4] (first compound 100 µM).
